Calls of active or inactive are those of the source. No cut-off for these calls is given here.
Experiments:
[1] = Inhibition of 20S proteasome beta 5c (unknown origin) preincubated for 1 hr followed by fluorescence based assay; set-up: species or system Homo sapiens
[2] = Inhibition of human 20S proteasome beta 5i preincubated for 1 hr followed by fluorescence based assay
[3] = Inhibition of human 20S proteasome beta 1i
[4] = Inhibition of 20S proteasome beta 1c derived from human erythrocytes preincubated for 1 hr using Z-nLPnLD-Glo peptide as substrate by proteasome-glo caspase-like assay
Homo sapiens [5] = species: Homo sapiens; assay: Selectivity ratio, ratio of IC50 for human 20S proteasome beta 1i to IC50 for 20S proteasome beta 5i (unknown origin)
[6] = Inhibition of 20S proteasome beta 5i/20S proteasome beta 1i in human PBMC cell lysate assessed as reduction in chymotrypsin-like activity pre-incubated for 30 mins followed by Meo-Suc-GLF-AM substrate addition and measured after 30 mins by fluorescence assay; assay type: subcellular
Homo sapiens [7] = species: Homo sapiens; assay: Selectivity ratio, ratio of IC50 for 20S proteasome beta 5c (unknown origin) to IC50 for human 20S proteasome beta 1i
Homo sapiens [8] = species: Homo sapiens; assay: Selectivity ratio, ratio of IC50 for 20S proteasome beta 5c (unknown origin) to IC50 for human 20S proteasome beta 5i
Homo sapiens [9] = species: Homo sapiens; assay: Selectivity ratio, ratio of IC50 for 20S proteasome beta 1c (unknown origin) to IC50 for human 20S proteasome beta 5i
PBMC [10] = assay: Cytotoxicity against human PBMC cells assessed as reduction in cell viability by CellTiter Glo assay; assay type: functional, cell-based
[11] = Cytotoxicity against human pDC assessed as reduction in cell viability by CellTiter Glo assay; assay type: functional
[12] = Cytotoxicity against human plasmablasts assessed as reduction in cell viability by CellTiter Glo assay; assay type: functional
Homo sapiens [13] = species: Homo sapiens; assay: Inhibition of 20S proteasome beta 5i in human PBMC cells assessed as induction of PSMB5 expression at 100 nM after 3 to 72 hrs by RT-PCR analysis; assay type: cell-based
Homo sapiens [14] = species: Homo sapiens; assay: Inhibition of 20S proteasome beta 5i in human PBMC cells assessed as induction of PSMB6 expression at 100 nM after 3 to 72 hrs by RT-PCR analysis; assay type: cell-based
Homo sapiens [15] = species: Homo sapiens; assay: Inhibition of 20S proteasome beta 5i in human PBMC cells assessed as induction of PSMB7 expression at 100 nM after 3 to 72 hrs by RT-PCR method; assay type: cell-based
[16] = Cytotoxicity against anti-CD3/CD28-stimulated human CD4-positive T cells with CRISP/CAS9 20S proteasome beta 5i knockout assessed as reduction in cell viability measured on day 8 by CellTiter Glo assay relative to control; assay type: functional
[17] = (§1) Cytotoxicity against anti-CD3/CD28-stimulated human CD4-positive T cells with CRISP/CAS9 20S proteasome beta 5c knockout assessed as reduction in cell viability measured on day 8 by CellTiter Glo assay relative to control; assay type: functional
PBMC [18] = assay: Induction of ubiquitin accumulation in human PBMC cells at 100 nM after 6 hrs by Western blot analysis; assay type: functional, cell-based
PBMC [19] = assay: Induction of apoptosis in human PBMC cells at 10 uM after 12 hrs by caspase 3,7-glo assay; assay type: functional, cell-based
Homo sapiens [20] = species: Homo sapiens; assay: Inhibition of 20S proteasome beta 5i in human PBMC cells assessed as upregulation of 20S proteasome beta 5c level at 100 nM after 24 to 72 hrs by Western blot analysis; assay type: cell-based
Homo sapiens [21] = species: Homo sapiens; assay: as §1; assay type: functional

## Cc1c(C(=O)N[C@@H](CC(C)C)B(O)O)nnn1Cc1ccccc1
[1]
  IC50: 7300 nM
[2]
  IC50: 40 nM
[3]
  IC50: 15 nM
[4]
  IC50: > 20000 nM
Homo sapiens [5]
  Ratio IC50: 0.4
[6]
  IC50: 290 nM

## CC(C)C[C@H](NC(=O)c1cn(-c2ccccc2)nn1)B(O)O
[1]
  IC50: 760 nM
[2]
  IC50: 1.4 nM
Homo sapiens [7]
  Ratio IC50: 1300 to 3400
[3]
  IC50: 0.58 nM
[4]
  IC50: 4200 nM
[6]
  IC50: 25 nM

## COc1ccc(C(=O)NCCn2cc(C(=O)N[C@@H](CC(C)C)B(O)O)nn2)c(OC)c1OC
[1]
  IC50: 37 nM
[2]
  IC50: 2.2 nM
Homo sapiens [8]
  Ratio IC50: 17
Homo sapiens [7]
  Ratio IC50: 5.2
[3]
  IC50: 8.1 nM
[4]
  IC50: 1400 nM
Homo sapiens [5]
  Ratio IC50: 5.2
Homo sapiens [9]
  Ratio IC50: 640
[6]
  IC50: 34 nM
PBMC [10]
  IC50: 100 nM
[11]
  IC50: 22 nM
[12]
  IC50: 54 nM
Homo sapiens [13]
  inhibition: Active
Homo sapiens [14]
  inhibition: Active
Homo sapiens [15]
  inhibition: Active

## O=C(N[C@@H](Cc1ccc(Cl)cc1)B(O)O)c1cnn(Cc2ccccc2)c1
[1]
  IC50: 7700 nM
[2]
  IC50: 87 nM
[3]
  IC50: 110 nM
[4]
  IC50: > 20000 nM
[6]
  IC50: 470 nM

## CC(C)C[C@H](NC(=O)c1cn(C2CCCCC2)nn1)B(O)O
[1]
  IC50: 2900 nM
[2]
  IC50: 4.1 nM
Homo sapiens [8]
  Ratio IC50: 710
Homo sapiens [7]
  Ratio IC50: 1300 to 3400
[3]
  IC50: 0.85 nM
[4]
  IC50: 480 nM
Homo sapiens [5]
  Ratio IC50: 0.2
Homo sapiens [9]
  Ratio IC50: 120
[6]
  IC50: 60 nM
PBMC [10]
  IC50: 7300 nM
[11]
  IC50: 3700 nM
[12]
  IC50: 2900 nM

## O=C(N[C@@H](Cc1ccc(Cl)cc1)B(O)O)c1cnn(-c2ccccc2)c1
[1]
  IC50: 3200 nM
[2]
  IC50: 6.8 nM
[3]
  IC50: 12 nM
[4]
  IC50: > 20000 nM
[6]
  IC50: 130 nM

## Cc1ccc(C[C@H](NC(=O)c2cn(-c3ccccc3)nn2)B2O[C@@H]3C[C@@H]4C[C@@H](C4(C)C)[C@]3(C)O2)c(C)c1
[1]
  IC50: 270 nM
[2]
  IC50: 0.68 nM
[3]
  IC50: 50 nM
[4]
  IC50: > 20000 nM
[6]
  IC50: 6.9 nM

## COC[C@H](NC(=O)c1cc(C)on1)C(=O)N[C@H](C(=O)N[C@@H](CC(C)C)C(=O)[C@@]1(C)CO1)C1CC1
[1]
  IC50: 78 nM
[2]
  IC50: 2100 nM
Homo sapiens [8]
  Ratio IC50: 0.04
Homo sapiens [7]
  Ratio IC50: 0.11
[3]
  IC50: 690 nM
[4]
  IC50: 11000 nM
Homo sapiens [13]
  inhibition: Active
Homo sapiens [14]
  inhibition: Active
Homo sapiens [15]
  inhibition: Active

## Cc1c(C(=O)N[C@@H](CC(C)C)B(O)O)nnn1-c1ccccc1
[1]
  IC50: > 10000 nM
[2]
  IC50: 130 nM
[3]
  IC50: 41 nM
[4]
  IC50: 18000 nM
[6]
  IC50: 310 nM

## COc1ccc(C[C@H](NC(=O)[C@H](C)NC(=O)CN2CCOCC2)C(=O)N[C@@H](Cc2ccccc2)C(=O)[C@@]2(C)CO2)cc1
[1]
  IC50: 1300 nM
[2]
  IC50: 145 nM
Homo sapiens [8]
  Ratio IC50: 9 to 20
Homo sapiens [7]
  Ratio IC50: 1.6
[3]
  IC50: 790 nM
[4]
  IC50: 13000 nM
Homo sapiens [13]
  inhibition: Active
Homo sapiens [14]
  inhibition: Active
Homo sapiens [15]
  inhibition: Active

## CC(C)C[C@H](NC(=O)c1cc(Cc2ccccc2)on1)B(O)O
[1]
  IC50: 3000 nM
[2]
  IC50: 23 nM
[3]
  IC50: 9.4 nM
[4]
  IC50: 1400 nM
[6]
  IC50: 85 nM

## CC(C)C[C@H](NC(=O)c1cn(C)nn1)B1O[C@@H]2C[C@@H]3C[C@@H](C3(C)C)[C@]2(C)O1
[1]
  IC50: 9600 nM
[2]
  IC50: 55 nM
Homo sapiens [8]
  Ratio IC50: 174
[3]
  IC50: 9 nM
[4]
  IC50: > 20000 nM
[6]
  IC50: 250 nM

## CC(C)C[C@H](NC(=O)c1cn(Cc2ccccc2)nn1)B(O)O
[1]
  IC50: 890 nM
[2]
  IC50: 4 nM
Homo sapiens [8]
  Ratio IC50: 220 to 710
Homo sapiens [7]
  Ratio IC50: 1300 to 3400
[3]
  IC50: 0.55 nM
[4]
  IC50: 71 nM
Homo sapiens [5]
  Ratio IC50: 0.14
[6]
  IC50: 45 nM

## CC(C)C[C@H](NC(=O)[C@H](Cc1ccccc1)NC(=O)c1cnccn1)B(O)O [BORTEZOMIB]
[3]
  IC50: 7.9 nM
[4]
  IC50: 32 nM
PBMC [10]
  IC50: 2.7 nM
[11]
  IC50: 5.2 nM
[12]
  IC50: 3.9 nM
Homo sapiens [13]
  inhibition: Active
Homo sapiens [14]
  inhibition: Active
Homo sapiens [15]
  inhibition: Active
[16]
  fold change (FC): 3
[17]
  fold change (FC): 3

## CC(C)C[C@H](NC(=O)c1nnc(Cc2ccccc2)[nH]1)B(O)O
[1]
  IC50: 350 nM
[2]
  IC50: 19 nM
[3]
  IC50: 6.3 nM
[4]
  IC50: 61 nM
[6]
  IC50: 200 nM

## Cc1ccc(C[C@H](NC(=O)c2cn(Cc3ccccc3)nn2)B2O[C@@H]3C[C@@H]4C[C@@H](C4(C)C)[C@]3(C)O2)c(C)c1
[1]
  IC50: 420 nM
[2]
  IC50: 1.2 nM
[3]
  IC50: 17 nM
[4]
  IC50: > 20000 nM
[6]
  IC50: 11 nM

## CC(C)C[C@H](NC(=O)c1ncn(Cc2ccccc2)n1)B(O)O
[1]
  IC50: > 10000 nM
[2]
  IC50: 360 nM
[3]
  IC50: 19 nM
[4]
  IC50: > 20000 nM
[6]
  IC50: 8900 nM

## O=C(N[C@@H](Cc1ccc(Cl)cc1)B(O)O)c1cn(Cc2ccccc2)nn1
[1]
  IC50: 46 nM
[2]
  IC50: 0.54 nM
[3]
  IC50: 3.9 nM
[4]
  IC50: 530 nM
[6]
  IC50: 2.3 nM

## Cc1ccc(C[C@H](NC(=O)c2nnn(Cc3ccccc3)c2C)B2O[C@@H]3C[C@@H]4C[C@@H](C4(C)C)[C@]3(C)O2)c(C)c1
[1]
  IC50: 9100 nM
[2]
  IC50: 4.1 nM
Homo sapiens [8]
  Ratio IC50: 2200
[3]
  IC50: 8500 nM
[4]
  IC50: > 20000 nM
Homo sapiens [5]
  Ratio IC50: 2100
Homo sapiens [9]
  Ratio IC50: > 4800
[6]
  IC50: 79 nM
PBMC [10]
  IC50: > 10000 nM
[11]
  IC50: > 10000 nM
[12]
  IC50: 9300 nM

## Cc1ccc(C[C@H](NC(=O)c2cc(Cc3ccccc3)on2)B2O[C@@H]3C[C@@H]4C[C@@H](C4(C)C)[C@]3(C)O2)c(C)c1
[1]
  IC50: 1300 nM
[2]
  IC50: 4.1 nM
[3]
  IC50: 92 nM
[4]
  IC50: > 20000 nM
[6]
  IC50: 80 nM

## C=CC(=O)N(CC(=O)N[C@@H](Cc1ccc(C)cc1C)B(O)O)c1ccccc1F
[1]
  IC50: 2400 nM
[2]
  IC50: 8.1 nM
Homo sapiens [8]
  Ratio IC50: 283 to 296
Homo sapiens [7]
  Ratio IC50: 1.1
[3]
  IC50: 2200 nM
[4]
  IC50: > 20000 nM
Homo sapiens [5]
  Ratio IC50: 247
Homo sapiens [9]
  Ratio IC50: > 2400
PBMC [10]
  IC50: 5700 nM
[11]
  IC50: 6000 nM
[12]
  IC50: 670 nM
PBMC [18]
  Activity: inactive
PBMC [19]
  Activity: inactive
Homo sapiens [20]
  inhibition: Active
Homo sapiens [13]
  inhibition: Active
Homo sapiens [14]
  inhibition: Active
Homo sapiens [15]
  inhibition: Active
Homo sapiens [21]
  Activity: Active

## O=C(N[C@@H](Cc1ccc(Cl)cc1)B(O)O)c1cn(-c2ccccc2)nn1
[1]
  IC50: 64 nM
[2]
  IC50: 0.91 nM
[3]
  IC50: 15 nM
[4]
  IC50: 5500 nM
[6]
  IC50: 3.2 nM
